Reference: publication PMC9416257, “Design, Synthesis and Preliminary Evaluation of the Cytotoxicity and Antibacterial Activity of Novel Triphenylphosphonium Derivatives of Betulin” (Molecules, 2022)
Where two headings read alike, the source gives them in different places.

What was measured:
[1] = test system: NHDF (Normal Human Dermal Fibroblast cells); assay: Cytotoxicity, CCK-8 cell viability assay (safety on normal cells); type: cell-based; details: read-out: Activity IC50, NHDF
Protocol: (§1) The obtained new molecular hybrids of BN were screened in order to initially investigate their cytotoxicity as well as examine the relationships between the structure and biological effect. The common element of all of the tested compounds was the presence of a lipophilic moiety (CH2)nTPP^⊕ (n = 3, 4, 5). The research was conducted on two groups of compounds: 28-TPP^⊕ BN and 3,28-bisTPP^⊕ BN. Their cytotoxicity was investigated on two cancer cell lines: HCT 116 (colorectal carcinoma cell line) and MCF-7 (human breast adenocarcinoma cell line). The proliferation of tumor cells treated with the tested compounds (7 and 9) at 12.5–3.125 µM concentrations were determined after 24 h of incubation. Additionally, all compounds were tested against the NHDF cell line (Normal Human Dermal Fibroblast cells) to assess their safety. Half-maximal inhibitory concentrations (IC50) of triphenylphosphonium analogs of BN were determined using a CCK-8 assay and are summarized in Table 2.
(§2) The human colorectal carcinoma cell line (HCT 116) and the human breast adenocarcinoma cell line (MCF-7) cells were purchased from the American Type Culture Collection (ATCC, Manassas, VA, USA). The Normal Human Dermal Fibroblast (NHDF) cells were purchased from Lonza (Dermal Fibroblasts, Lonza, Poland). All cells were cultured under standard conditions at 37 °C in a humidified atmosphere at 5% CO2 in DMEM/F12 medium (PAA) supplemented with 10% of heat-inactivated fetal bovine serum (FBS, EURx, Gdansk, Poland) and antibiotics (penicillin/streptomycin).
(§3) Cells were seeded at 7500 (HCT 116) or 10,000 (MCF-7, NHDF) cells/well in 96-well plates. After 24 h, the culture medium was removed and 100 µL of fresh medium containing the test compounds at 0–12.5 µM concentrations was added to the culture wells. The test compounds were dissolved in DMSO to obtain a stock solution with a concentration of 5 mM (betulin) or 10 mM (other test compounds). The stock solution was diluted with the fresh culture medium to the desired concentration. Controls were cells grown in medium without the addition of test compounds. After 24 h of incubation with the test compounds, 10 µL of CCK-8 reagent (Bimake, Houston, TX, USA) was added to each well. After 2 h, the absorbance of the samples was measured at a wavelength of 450 nm using a microplate reader (Epoch, BioTek Instruments, Winooski, VT, USA). The determinations were conducted in at least three biological replications (each biological replication contained 3 technical replications). The cell viability rate was calculated using CalcuSyn software (version 2.0, Biosoft, Cambridge, UK).

[2] = test system: HCT 116 (colorectal carcinoma cell line); assay: Cytotoxicity, CCK-8 cell viability assay; type: cell-based; details: Homo sapiens, read-out: Activity IC50, HCT 116
Protocol: as §1, §2, §3

[3] = test system: S. epidermidis ATCC 12228; assay: Antibacterial assay, optical density of culture in TSB; type: cell-based, Staphylococcus epidermidis; details: 18 h; for Difference between optical density before and after culture, S. epidermidis ATCC 12228: 37 °C
Protocol: (§4) Investigations were carried out using different concentrations of solutions from 25 to 250 µM. A 25 µM concentration of the tested derivatives was not enough to inhibit the growth of […]. When the concentration of analogs 7d–7f and 9a–9c increased to 200 µM, the growth of S. aureus ATCC 25923 and S. epidermidis ATCC 12228 was inhibited. Furthermore, the optical density of all compounds remained unchanged after 18 h of bacteria culture. In the case of analogs 7a–7c, the optical density values were between 0.9 and 2.2 when they were cultured with S. aureus ATCC 25923. The bacterial growth was slower compared to the control sample (TSB-culture medium). […] In the case of analog 7c, the optical density increased up to […] after 18 h of the sample culture with both kinds of Gram-positive bacteria. In contrast, the reference sample’s (TSB) optical density increased to 7.5 for S. aureus ATCC 25923, and 4.9 for S. epidermidis ATCC 12228 after 18 h of bacteria culture. […] All of the analog values of the measured optical density were similar to that of the reference sample (5.0–5.1, Table 3).
(§5) Antibacterial analysis was performed using the S. aureus ATCC 25923, S. epidermidis ATCC 12228, and Escherichia coli ATCC 25922 bacteria strains. The test compounds were dissolved in DMSO to obtain a stock solution with a concentration of 5 mM (betulin) or 10 mM (other test compounds). The stock solution was diluted with water to the desired concentration (25–250 µM). Then, 1 mL of the investigated solutions was mixed with 1 mL of culture medium (TSB, Biomaxima, Lublin, Poland) in a sterile glass tube. The initial concentration of bacteria was around 5 × 10^6 CFU/mL. The concentration of bacteria was measured using an optical densitometer before and after 18 h of bacteria culture in glass tubes at 37 °C (incubator POL-EKO, Wodzislaw Slaski, Poland). The investigations were repeated for three independent samples. The control sample was the culture medium without any supplementation.

[4] = test system: MCF-7 (human breast adenocarcinoma cell line); assay: Cytotoxicity, CCK-8 cell viability assay; type: cell-based; details: read-out: Activity IC50, MCF-7
Protocol: as §1, §2
as §3, with “After 24 h, the culture medium was removed and 100 µL of fresh medium containing the test compounds at 0–12.5 µM concentrations was added to the culture wells.” left out

[5] = test system: Escherichia coli ATCC 25922; assay: Antibacterial assay, optical density of culture in TSB; type: cell-based; details: 37 °C, 18 h; also: key: 0: no difference between samples after 18 h of bacteria culture (bacteria grow was inhibited); neg: negative results (analog BN did not inhibit bacteria growing)
Protocol: as §4, §5

S. aureus ATCC 25923 = assay: as above; type: cell-based, Staphylococcus aureus; details: 18 h; for Difference between optical density before and after culture, S. aureus ATCC 25923: 37 °C
Protocol: as §4, §5

[6] = CCK-8 assay, incubation time 24 h, mean ± SD (n = 3)
[7] = HCT-116, CCK-8 assay, incubation time 24 h, mean ± SD (n = 3)
[8] = MCF7, CCK-8 assay, incubation time 24 h, mean ± SD (n = 3)

Compound	IC50 [1, 6] [µM]	IC50 [2, 7] [µM]	Difference between optical density before and after culture, S. epidermidis ATCC 12228 ([3]; 200 μM)	Difference between optical density before and after culture, S. epidermidis ATCC 12228 ([3]; 250 μM)	Inhibition of growth of S. epidermidis ATCC 12228 (in words) ([3]; 250 µM)	IC50 [4, 8] [µM]	Difference between optical density before and after culture, Escherichia coli ATCC 25922 ([5]; 200 μM)	Difference between optical density before and after culture, Escherichia coli ATCC 25922 ([5]; 250 μM)	Difference between optical density before and after culture, S. aureus ATCC 25923 (S. aureus ATCC 25923; 200 μM)	Difference between optical density before and after culture, S. aureus ATCC 25923 (S. aureus ATCC 25923; 250 μM)	Inhibition of growth of S. aureus ATCC 25923 (in words) (S. aureus ATCC 25923; 250 µM)	IC50 ([1]; 24 h) [µM]	IC50 ([2]; HCT-116, 24 h) [µM]	IC50 ([4]; MCF7, 24 h) [µM]
C=C(C)[C@@H]1CC[C@]2(COC(=O)CCC(=O)OCCC[P+](c3ccccc3)(c3ccccc3)c3ccccc3)CC[C@]3(C)C(CCC4[C@@]5(C)CC[C@H](OC(C)=O)C(C)(C)C5CC[C@]43C)C12 (some centres unmarked) [7a, 3-O-Acetyl-28-O’-(3’-(3"-triphenylphosphoniopropyloxycarbonyl)propanoyl)betulin bromide]	9.68 ± 0.27	5.56 ± 0.28	neg	0	greatly inhibited the growth	13.7 ± 0.54	neg	neg	0.9 McFarland’s scale (CFU/mL)	0	greatly inhibited the growth	–	–	–
C=C(C)[C@@H]1CC[C@]2(COC(=O)CC(C)(C)C(=O)OCCCCC[P+](c3ccccc3)(c3ccccc3)c3ccccc3)CC[C@]3(C)C(CCC4[C@@]5(C)CC[C@H](OC(C)=O)C(C)(C)C5CC[C@]43C)C12 (some centres unmarked) [7f, 3-O-Acetyl-28-O’-(3’,3’-dimethyl-3’-(5"-triphenylphosphoniopentyloxycarbonyl)propanoyl)betulin bromide]	10 ± 0.48	12.7 ± 0.89	0	0	–	50.5 ± 3.92	neg	neg	0	0	–	–	–	–
C=C(C)[C@@H]1CC[C@]2(COC(=O)CCC(=O)OCCC[P+](c3ccccc3)(c3ccccc3)c3ccccc3)CC[C@]3(C)C(CCC4[C@@]5(C)CC[C@H](OC(=O)CCC(=O)OCCC[P+](c6ccccc6)(c6ccccc6)c6ccccc6)C(C)(C)C5CC[C@]43C)C12 (some centres unmarked) [9a, 3,28-O,O′-Bis(3’-(3"-triphenylphosphoniopropyloxycarbonyl)propanoyl)betulin bromide]	–	–	0	0	–	–	neg	neg	0	0	–	5.91 ± 0.33	6.32 ± 0.27	31.3 ± 3.02
